Drawing on patent publication US12220419B2, “BCL-2 inhibitors” (Newave Pharmaceutical Inc., priority 2018, dated 2025), this text covers IC50 for twelve molecules.

Read-outs that look alike come from different tables or passages of the source.

One test concerns the target BCL-2 (Homo sapiens (Human), UniProt P10415). Kind of test: BCL-2 competition binding (fluorescence polarization) assay. As to conditions: read-out: BCL2 IC50. On the procedure: Biological Example 1: BCL-2 Competition Binding (Fluorescence Polarization) Assay
The fluorescence-labeled 23 amino acid peptide BH3 was purchased from CalBiochem ([…]). […] This binding assay was performed in 96-well plate and with each assay contained 15 and 30 nM of labeled peptide and purified BCL-2 protein (purchased from R&D Systems, Inc). The assay buffer contained 20 mM Hepes (pH 7.0), 50 mM KCl, 5 mM MgCl2, 20 mM Na2MoO4, 0.1 mg/ml Bovine Gamma Globulin and 0.01% NP40. Compounds were diluted in DMSO and added to the final assay with concentration range from 20 μM to 2 nM. The polarization degree (mP) value was determined by BioTek Synergy II with background subtraction after 3 hours of incubation at room temperature. IC50 was calculated using Prism software with sigmoidal dose-response curve fitting. ABT-737 was used as reference compound. Such assays, carried out with a range of doses of test compounds, allowed the determination of an approximate IC50 value.

In test [1] the test system is BCL-2-dependent acute lymphoblastic leukemia (ALL) cell line RS4;11. Kind of test: In vitro anti-proliferation assay (ATPlite luminescence) in RS4;11. Particulars: RS4;11 cells, about 72 hours, medium with 5% FBS or 10% normal human serum. The test is classed as cell-based. On the procedure:
Cell antiproliferation was assayed by PerkinElmer ATPlite™ Luminescence Assay System. Briefly, the various test cancer cell lines were plated at a density of about 1×10^4 cells per well in Costar 96-well plates, and were incubated with different concentrations of compounds for about 72 hours in medium supplemented with 5% FBS or 10% normal human serum (NHS). One lyophilized substrate solution vial was then reconstituted by adding 5 mL of substrate buffer solution, and was agitated gently until the solution was homogeneous. About 50 μL of mammalian cell lysis solution was added to 100 μL of cell suspension per well of a microplate, and the plate was shaken for about five minutes in an orbital shaker at 700 rpm. This procedure was used to lyse the cells and to stabilize the ATP. Next, 50 μL substrate solution was added to the wells and microplate was shaken for five minutes in an orbital shaker at 700 rpm. Finally, the luminescence was measured by a PerkinElmer TopCount® Microplate Scintillation Counter. Such assays, carried out with a range of doses of test compounds, allowed the determination of the cellular anti-antiproliferative IC50 of the compounds of the present invention.
On the technique in general: In ATP-based viability assays light output follows the ATP content of the culture.

The mark [2] stands for this setting: fluorescein-labeled BH3 peptide 15 nM, purified BCL-2 protein 30 nM, 3 hours incubation at room temperature.

Sequence of BCL-2 (P10415 whole entry): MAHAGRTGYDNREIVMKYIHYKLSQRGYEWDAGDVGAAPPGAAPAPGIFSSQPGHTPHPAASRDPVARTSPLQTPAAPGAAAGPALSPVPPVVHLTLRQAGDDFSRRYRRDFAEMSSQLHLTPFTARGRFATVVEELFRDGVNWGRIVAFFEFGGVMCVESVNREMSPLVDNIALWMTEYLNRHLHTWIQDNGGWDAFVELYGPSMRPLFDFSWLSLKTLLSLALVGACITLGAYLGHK

For `CC1(C)CCC(CN2CCN(c3ccc(C(=O)NS(=O)(=O)c4ccc(NCCOCCOCCOCCNc5cccc6c5C(=O)N(C5CCC(=O)NC5=O)C6=O)c([N+](=O)[O-])c4)c(N4CCCOc5nc6[nH]ccc6cc54)c3)CC2)=C(c2ccc(Cl)cc2)C1` (stereo not drawn) [Example 53, 4-(4-[[2-(4-chlorophenyl)-4,4-dimethylcyclohex-1-en-1-yl]methyl]piperazin-1-yl)-N-[4-(12-[[2-(2,6-dioxopiperidin-3-yl)-1,3-dioxoisoindol-4-yl]amino]-4,7,10-trioxa-1-azadodecan-1-yl)-3-nitrobenzenesulfonyl]-2-[14-oxa-2,4,10-triazatricyclo[7.5.0.0^[3,7]]tetradeca-1(9),2,5,7-tetraen-10-yl]benzamide], the results for the IC50 (at BCL-2 (setting [2]); in test [1]) were 1.2 nM and 79 nM, respectively.

Regarding `Cc1ncsc1-c1ccc(CNC(=O)[C@@H]2C[C@@H](O)CN2C(=O)[C@@H](NC(=O)CCOCCOCCOCCN2CCN(CCNc3ccc(S(=O)(=O)NC(=O)c4ccc(N5CCN(CC6=C(c7ccc(Cl)cc7)CC(C)(C)CC6)CC5)cc4N4CCCOc5nc6[nH]ccc6cc54)cc3[N+](=O)[O-])CC2)C(C)(C)C)cc1` [Example 54], the IC50 on BCL-2 (setting [2]) amounted to 0.6 nM; in test [1] it was 49.6 nM.

In the case of `Cc1ncsc1-c1ccc(CNC(=O)[C@@H]2C[C@@H](O)CN2C(=O)[C@@H](NC(=O)CCOCCOCCOCCOCCOCCNc2ccc(S(=O)(=O)NC(=O)c3ccc(N4CCN(CC5=C(c6ccc(Cl)cc6)CC(C)(C)CC5)CC4)cc3N3CCCOc4nc5[nH]ccc5cc43)cc2[N+](=O)[O-])C(C)(C)C)cc1` [Example 55, (2S,4R)-1-[(2S)-2-[1-[(4-[[4-(4-[[2-(4-chlorophenyl)-4,4-dimethylcyclohex-1-en-1-yl]methyl]piperazin-1-yl)-2-[14-oxa-2,4,10-triazatricyclo[7.5.0.0^[3,7]]tetradeca-1(9),2,5,7-tetraen-10-yl]phenyl]formamidosulfonyl]-2-nitrophenyl)amino]-3,6,9,12,15-pentaoxaoctadecan-18-amido]-3,3-dimethylbutanoyl]-4-hydroxy-N-[[4-(4-methyl-1,3-thiazol-5-yl)phenyl]methyl]pyrrolidine-2-carboxamide], the IC50 on BCL-2 (setting [2]) was 1.1 nM; in test [1], 75 nM.

Consider `Cc1ncsc1-c1ccc(CNC(=O)[C@@H]2C[C@@H](O)CN2C(=O)[C@@H](NC(=O)CCOCCOCCN2CCN(CCNc3ccc(S(=O)(=O)NC(=O)c4ccc(N5CCN(CC6=C(c7ccc(Cl)cc7)CC(C)(C)CC6)CC5)cc4N4CCCOc5nc6[nH]ccc6cc54)cc3[N+](=O)[O-])CC2)C(C)(C)C)cc1` [Example 56], for which the IC50 at BCL-2 (setting [2]) came to 0.4 nM; in test [1] it was 63.7 nM.

For `Cc1ncsc1-c1ccc(CNC(=O)[C@@H]2C[C@@H](O)CN2C(=O)[C@@H](NC(=O)CCOCCOCCOCCOCCNc2ccc(S(=O)(=O)NC(=O)c3ccc(N4CCN(CC5=C(c6ccc(Cl)cc6)CC(C)(C)CC5)CC4)cc3N3CCCOc4nc5[nH]ccc5cc43)cc2[N+](=O)[O-])C(C)(C)C)cc1` [Example 57, (2S,4R)-1-[(2S)-2-[1-[(4-[[4-(4-[[2-(4-chlorophenyl)-4,4-dimethylcyclohex-1-en-1-yl]methyl]piperazin-1-yl)-2-[14-oxa-2,4,10-triazatricyclo[7.5.0.0^[3,7]]tetradeca-1(9),2,5,7-tetraen-10-yl]phenyl]formamidosulfonyl]-2-nitrophenyl)amino]-3,6,9,12-tetraoxapentadecan-15-amido]-3,3-dimethylbutanoyl]-4-hydroxy-N-[[4-(4-methyl-1,3-thiazol-5-yl)phenyl]methyl]pyrrolidine-2-carboxamide], the results for the IC50 (on BCL-2 (setting [2]); in test [1]) were 0.5 nM and 68 nM, respectively.

With `Cc1ncsc1-c1ccc(CNC(=O)[C@@H]2C[C@@H](O)CN2C(=O)[C@@H](NC(=O)CCOCCN2CCN(CCNc3ccc(S(=O)(=O)NC(=O)c4ccc(N5CCN(CC6=C(c7ccc(Cl)cc7)CC(C)(C)CC6)CC5)cc4N4CCCOc5nc6[nH]ccc6cc54)cc3[N+](=O)[O-])CC2)C(C)(C)C)cc1` [Example 58], the IC50 came out at 0.3 nM at BCL-2 (setting [2]) and 102 nM in test [1].

As to `Cc1ncsc1-c1ccc(CNC(=O)[C@@H]2C[C@@H](C)CN2C(=O)[C@@H](NC(=O)CCOCCOCCOCCNc2ccc(S(=O)(=O)NC(=O)c3cc(N4CCN(CC5=C(c6ccc(Cl)cc6)CC(C)(C)CC5)CC4)ccc3N3CCCOc4nc5[nH]ccc5cc43)cc2[N+](=O)[O-])C(C)(C)C)cc1` [Example 59, (2S,4R)-1-[(2S)-2-[3-[2-(2-[2-[(4-[[5-(4-[[2-(4-chlorophenyl)-4,4-dimethylcyclohex-1-en-1-yl]methyl]piperazin-1-yl)-2-[14-oxa-2,4,10-triazatricyclo[7.5.0.0^[3,7]]tetradeca-1(9),2,5,7-tetraen-10-yl]phenyl]formamidosulfonyl]-2-nitrophenyl)amino]ethoxy]ethoxy)ethoxy]propanamido]-3,3-dimethylbutanoyl]-4-methyl-N-[[4-(4-methyl-1,3-thiazol-5-yl)phenyl]methyl]pyrrolidine-2-carboxamide], the IC50 is 1.1 nM at BCL-2 (setting [2]) and 84 nM in test [1].

`CC1(C)CCC(CN2CCN(c3ccc(C(=O)NS(=O)(=O)c4ccc(NCC5CCOCC5)c([N+](=O)[O-])c4)c(N4CCCCOc5nc6[nH]ccc6cc54)c3)CC2)=C(c2ccc(Cl)cc2)C1` [Example 69, 4-(4-[[2-(4-chlorophenyl)-4,4-dimethylcyclohex-1-en-1-yl]methyl]piperazin-1-yl)-N-(3-nitro-4-[[(oxan-4-yl)methyl]amino]benzenesulfonyl)-2-[15-oxa-2,4,10-triazatricyclo[7.6.0.0^[3,7]]pentadeca-1(9),2,5,7-tetraen-10-yl]benzamide]: the 50% inhibitory concentration (IC50) came out at 0.6 nM on BCL-2 and 28.6 nM in test [1].

In the case of `Cn1c(=O)c2nc3[nH]ccc3cc2n1-c1cc(N2CCN(CC3=C(c4ccc(Cl)cc4)CC(C)(C)CC3)CC2)ccc1C(=O)NS(=O)(=O)c1ccc(NC[C@H]2COCCO2)c([N+](=O)[O-])c1` [Example 70, 4-(4-[[2-(4-chlorophenyl)-4,4-dimethylcyclohex-1-en-1-yl]methyl]piperazin-1-yl)-N-(4-[[(2S)-1,4-dioxan-2-ylmethyl]amino]-3-nitrobenzenesulfonyl)-2-[11-methyl-12-oxo-2,4,10,11-tetraazatricyclo[7.3.0.0^[3,7]]dodeca-1,3(7),5,8-tetraen-10-yl]benzamide], the IC50 on BCL-2 (setting [2]) worked out at 0.1 nM; in test [1] it was 186 nM.

On to `CC1(C)CCC(CN2CCN(c3ccc(C(=O)NS(=O)(=O)c4ccc(NC[C@H]5COCCO5)c([N+](=O)[O-])c4)c(-n4c5ccncc5c5nc6[nH]ccc6cc54)c3)CC2)=C(c2ccc(Cl)cc2)C1` [Example 71, 4-(4-[[2-(4-chlorophenyl)-4,4-dimethylcyclohex-1-en-1-yl]methyl]piperazin-1-yl)-N-(4-[[(2S)-1,4-dioxan-2-ylmethyl]amino]-3-nitrobenzenesulfonyl)-2-[4,8,14,16-tetraazatetracyclo[7.7.0.0^[2,7].0[11,15]]hexadeca-1(16),2(7),3,5,9,11(15),12-heptaen-8-yl]benzamide], for which the IC50 at BCL-2 (setting [2]) came out at 0.6 nM; in test [1] it was 192 nM.

With `CC1(C)CC(c2ccc(Cl)cc2)=C(CN2CCN(c3ccc(C(=O)NS(=O)(=O)c4ccc(NC[C@H]5COCCO5)c([N+](=O)[O-])c4)c(N4CCCOc5nc6[nH]ccc6cc54)c3)CC2)CO1` [Example 72, 4-(4-[[4-(4-chlorophenyl)-6,6-dimethyl-2,5-dihydropyran-3-yl]methyl]piperazin-1-yl)-N-(4-[[(2S)-1,4-dioxan-2-ylmethyl]amino]-3-nitrobenzenesulfonyl)-2-[14-oxa-2,4,10-triazatricyclo[7.5.0.0^[3,7]]tetradeca-1(9),2,5,7-tetraen-10-yl]benzamide], the IC50 turned out to be 0.01 nM at BCL-2 and 0.3 nM in test [1].

As for `CC1(C)CCC(c2ccc(Cl)cc2)=C(CN2CCN(c3ccc(C(=O)NS(=O)(=O)c4ccc(NC[C@H]5COCCO5)c([N+](=O)[O-])c4)c(N4CCCOc5nc6[nH]ccc6cc54)c3)CC2)C1` [Example 73, 4-(4-[[2-(4-chlorophenyl)-5,5-dimethylcyclohex-1-en-1-yl]methyl]piperazin-1-yl)-N-(4-[[(2S)-1,4-dioxan-2-ylmethyl]amino]-3-nitrobenzenesulfonyl)-2-[14-oxa-2,4,10-triazatricyclo[7.5.0.0^[3,7]]tetradeca-1(9),2,5,7-tetraen-10-yl]benzamide], the values for the IC50 (on BCL-2 (setting [2]); in test [1]) were 0.9 nM and 3.1 nM, respectively.

The term IC50 denotes the concentration at which inhibition is half-maximal.
